Test results as given in patent publication US12473298B2, “Amide compounds, preparation method therefor, and use thereof in the medical field” (Shanghai Synergy Pharmaceutical Sciences Co., Ltd., priority 2019, dated 2025).
Like-named read-outs stand apart in the source and are kept apart here.

Tests used:
[1] = system: human diffuse large B-cell lymphoma cells (Karpas 422 cell); assay: Karpas 422 cell proliferation, Calcein AM staining; format: cell-based
[2] = Pharmacokinetic experiment in rats; format: in vivo, SD rats
Description: A certain amount of compound was weighted and dissolved in 0.1% Tween under vortex and ultrasound, and 0.5% carboxymethyl cellulose sodium (CMC-NA) solution was added to form a uniform solution.

[3] = system: human diffuse large cell lymphoma B lymphocytes (Pfeiffer cell); assay: Pfeiffer cell proliferation, Calcein AM staining; format: cell-based
Description: The diffuse large cell lymphoma B lymphocytes (Pfeiffer cells) were collected and counted when growing well.

wild-type EZH2 = wild-type EZH2 (Homo sapiens (Human), UniProt Q15910); assay: radiometric assay, activity to wild-type EZH2 of PRC2; conditions: read-out: Wild-type EZH2 IC50 Nanomoles per Liter
Description: 25 μL of reaction solution was transferred to a scintillation plate, which was incubated at room temperature for 1 hour (h) and washed with deionized water and 0.1% Tween 20 for three times. A PerkinElmer liquid scintillation/luminescence counter was used to read the value, and GraphPad Prism 5 was used to calculate the median inhibitory concentration (IC50) of the compounds.

Mutant type EZH2(A677G) = Mutant type EZH2(A677G) (Homo sapiens (Human), UniProt Q15910, A677G); assay: AlphaLISA, mutant type PRC2 complex EZH2(A677G); format: biochemical; conditions: read-out: Mutant type EZH2(A677G) IC59 Nanomoles per Liter
Mutant type EZH2(Y641F) = Mutant type EZH2(Y641F) (Homo sapiens (Human), UniProt Q15910, Y641F); assay: AlphaLISA, mutant type PRC2 complex EZH2(Y641F); format: biochemical; conditions: read-out: Mutant type EZH2(Y641F) IC50 Nanomoles per Liter
[4] = Homo sapiens, KARPAS-422, data of 14th day, read-out: Karpas422 Proliferation IC50 Nanomoles per Liter
[5] = male, SD, rat, plasma, rats, Intravenous-Dose 4 mg/kg, read-out: Area Curve (AUC, ng/mL · h)
[6] = male, SD, rat, plasma; rats, Intravenous-Dose 4 mg/kg; read-out: Half life T1/2, h) (converted)
[7] = male, SD, rat, plasma, rats, Oral-Dose 20 mg/kg, read-out: Area Curve (AUC, ng/mL · h)
[8] = male, SD, rat, plasma, rats, Oral-Dose 20 mg/kg, read-out: Blood Drug level (Cmax, ng/mL)
[9] = male, SD, rat, plasma, rats, oral 20 mg/kg vs intravenous 4 mg/kg, read-out: Bioavailability (P %)
[10] = Homo sapiens, Pfeiffer, data of 14th day, read-out: Pfeiffer Proliferation IC50 Nanomoles per Liter
[11] = male, SD, rat, in vivo, iv, 4 mg/kg
[12] = male, SD, rat, in vivo, po, 20 mg/kg
[13] = Homo sapiens, KARPAS-422, read-out: Karpas422 Proliferation IC50 Nanomoles per Liter (nM)
[14] = Homo sapiens, Pfeiffer, read-out: Pfeiffer Proliferation IC50 Nanomoles per Liter (nM)

Chain of Mutant type EZH2(Y641F) (Q15910 whole entry Y641F): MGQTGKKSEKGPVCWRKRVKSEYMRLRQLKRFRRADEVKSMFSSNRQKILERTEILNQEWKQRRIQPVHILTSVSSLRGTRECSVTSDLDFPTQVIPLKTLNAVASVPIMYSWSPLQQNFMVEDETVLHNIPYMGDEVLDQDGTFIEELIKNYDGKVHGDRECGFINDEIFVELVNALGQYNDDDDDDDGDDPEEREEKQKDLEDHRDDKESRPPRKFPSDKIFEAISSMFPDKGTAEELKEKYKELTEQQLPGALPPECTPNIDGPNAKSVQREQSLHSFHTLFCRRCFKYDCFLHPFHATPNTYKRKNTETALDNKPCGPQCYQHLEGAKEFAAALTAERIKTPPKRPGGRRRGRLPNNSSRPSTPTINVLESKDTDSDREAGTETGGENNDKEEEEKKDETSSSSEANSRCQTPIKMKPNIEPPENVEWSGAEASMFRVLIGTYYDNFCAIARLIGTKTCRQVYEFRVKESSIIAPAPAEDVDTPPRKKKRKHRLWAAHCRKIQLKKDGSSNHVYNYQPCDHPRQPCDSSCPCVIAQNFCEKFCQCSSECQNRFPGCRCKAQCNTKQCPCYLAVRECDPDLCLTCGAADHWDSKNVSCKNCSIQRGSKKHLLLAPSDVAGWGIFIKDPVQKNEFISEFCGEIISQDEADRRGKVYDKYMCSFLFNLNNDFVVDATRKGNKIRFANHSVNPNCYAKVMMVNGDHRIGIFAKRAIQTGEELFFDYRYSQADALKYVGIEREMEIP
Chain of Mutant type EZH2(Y641F) (O75530 whole entry partner): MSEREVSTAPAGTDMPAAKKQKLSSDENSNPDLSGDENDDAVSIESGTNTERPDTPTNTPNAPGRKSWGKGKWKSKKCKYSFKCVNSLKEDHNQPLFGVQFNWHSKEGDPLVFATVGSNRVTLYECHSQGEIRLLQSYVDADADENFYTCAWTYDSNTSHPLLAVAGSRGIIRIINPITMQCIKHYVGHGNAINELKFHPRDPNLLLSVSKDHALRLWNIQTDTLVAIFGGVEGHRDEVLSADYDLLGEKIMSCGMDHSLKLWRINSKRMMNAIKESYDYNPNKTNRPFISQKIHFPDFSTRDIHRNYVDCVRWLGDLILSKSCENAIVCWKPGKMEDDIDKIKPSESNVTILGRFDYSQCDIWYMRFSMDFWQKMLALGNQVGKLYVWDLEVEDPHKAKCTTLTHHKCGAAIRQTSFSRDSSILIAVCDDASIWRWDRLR
Chain of Mutant type EZH2(Y641F) (Q15022 whole entry partner): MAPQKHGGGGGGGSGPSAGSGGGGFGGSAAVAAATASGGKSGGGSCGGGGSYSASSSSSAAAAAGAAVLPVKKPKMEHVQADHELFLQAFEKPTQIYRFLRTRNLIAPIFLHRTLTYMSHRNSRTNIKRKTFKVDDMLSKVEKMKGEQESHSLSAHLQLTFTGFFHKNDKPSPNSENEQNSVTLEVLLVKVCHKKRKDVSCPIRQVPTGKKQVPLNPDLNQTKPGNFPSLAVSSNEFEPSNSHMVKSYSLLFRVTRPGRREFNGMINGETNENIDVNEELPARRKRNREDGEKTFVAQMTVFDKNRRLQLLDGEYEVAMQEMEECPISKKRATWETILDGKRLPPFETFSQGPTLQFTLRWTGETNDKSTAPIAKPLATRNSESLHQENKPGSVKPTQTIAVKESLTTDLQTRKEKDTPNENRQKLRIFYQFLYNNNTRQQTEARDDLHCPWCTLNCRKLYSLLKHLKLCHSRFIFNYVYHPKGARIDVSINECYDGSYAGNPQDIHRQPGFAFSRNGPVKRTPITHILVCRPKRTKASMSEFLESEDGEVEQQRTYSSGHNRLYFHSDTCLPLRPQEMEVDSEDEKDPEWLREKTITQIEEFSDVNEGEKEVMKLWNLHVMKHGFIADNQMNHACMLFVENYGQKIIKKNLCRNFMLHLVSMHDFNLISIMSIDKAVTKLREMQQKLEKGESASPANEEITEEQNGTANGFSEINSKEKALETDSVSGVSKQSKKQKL
Chain of Mutant type EZH2(Y641F) (Q09028 whole entry partner): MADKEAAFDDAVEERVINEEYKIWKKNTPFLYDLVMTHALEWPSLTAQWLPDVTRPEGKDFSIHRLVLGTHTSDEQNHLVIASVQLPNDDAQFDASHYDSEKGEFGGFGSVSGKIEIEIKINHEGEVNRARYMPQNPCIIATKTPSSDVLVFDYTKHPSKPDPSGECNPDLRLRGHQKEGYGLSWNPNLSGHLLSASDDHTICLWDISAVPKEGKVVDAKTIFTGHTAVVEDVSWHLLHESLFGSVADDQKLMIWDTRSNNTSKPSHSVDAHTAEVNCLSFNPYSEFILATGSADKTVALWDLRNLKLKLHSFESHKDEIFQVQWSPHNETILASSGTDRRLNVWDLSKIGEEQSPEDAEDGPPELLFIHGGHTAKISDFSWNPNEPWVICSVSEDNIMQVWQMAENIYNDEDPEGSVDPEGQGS
Chain of Mutant type EZH2(Y641F) (Q6ZN18 whole entry partner): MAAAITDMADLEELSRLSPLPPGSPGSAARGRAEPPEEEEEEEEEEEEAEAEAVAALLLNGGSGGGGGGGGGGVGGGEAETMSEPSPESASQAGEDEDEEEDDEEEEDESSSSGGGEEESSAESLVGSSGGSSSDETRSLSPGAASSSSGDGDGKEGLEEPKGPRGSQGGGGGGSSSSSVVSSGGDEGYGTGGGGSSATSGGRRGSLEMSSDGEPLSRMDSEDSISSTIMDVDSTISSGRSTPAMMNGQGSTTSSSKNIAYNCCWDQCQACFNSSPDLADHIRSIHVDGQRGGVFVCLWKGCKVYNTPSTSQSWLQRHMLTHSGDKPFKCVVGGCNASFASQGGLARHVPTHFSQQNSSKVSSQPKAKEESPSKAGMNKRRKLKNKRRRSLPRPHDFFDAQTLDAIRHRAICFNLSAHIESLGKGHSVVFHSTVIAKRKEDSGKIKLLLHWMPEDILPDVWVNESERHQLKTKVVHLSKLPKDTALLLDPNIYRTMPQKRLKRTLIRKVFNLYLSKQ
Chain of Mutant type EZH2(A677G) (Q15910 whole entry A677G): as the sequence (Q15910 whole entry Y641F) above, with F641Y, A677G counted along it
Chain of Mutant type EZH2(A677G) (O75530 whole entry partner): as the sequence (O75530 whole entry partner) above
Chain of Mutant type EZH2(A677G) (Q15022 whole entry partner): as the sequence (Q15022 whole entry partner) above
Chain of Mutant type EZH2(A677G) (Q09028 whole entry partner): as the sequence (Q09028 whole entry partner) above
Chain of Mutant type EZH2(A677G) (Q6ZN18 whole entry partner): as the sequence (Q6ZN18 whole entry partner) above
Chain of wild-type EZH2 (Q15910 whole entry): as the sequence (Q15910 whole entry Y641F) above, with F641Y counted along it
Chain of wild-type EZH2 (O75530 whole entry partner): as the sequence (O75530 whole entry partner) above
Chain of wild-type EZH2 (Q15022 whole entry partner): as the sequence (Q15022 whole entry partner) above

| Molecule | IC50 [1, 4] [nM] | AUC [2, 5] [µg·h/mL] | half-life [2, 6] [h] | AUC [2, 7] [µg·h/mL] | Cmax [2, 8] [ng/mL] | bioavailability [2, 9] [%] | IC50 [3, 10] [nM] | IC50 (wild-type EZH2) [nM] | IC50 (Mutant type EZH2(A677G)) [nM] | IC50 (Mutant type EZH2(Y641F)) [nM] | also measured |
| --- | --- | --- | --- | --- | --- | --- | --- | --- | --- | --- | --- |
| CCN1CCC2(CC1)CN(C)c1cc(-c3cc(C(=O)NCc4c(C)cc(C)[nH]c4=O)c(C)c(N(CC)C4CCOCC4)c3)ccc12 [Example 30, N-((4,6-dimethyl-2-oxo-1,2-dihydropyridin-3-yl)methyl)-3-(ethyl(tetrahydro-2H-pyran-4-yl)amino)-5-(1′-ethyl-1-methylspiro[dihydroindole-3,4′-piperidine]-6-yl)-2-methylbenzamide] | 1.2 | – | – | – | – | – | […] | – | – | – | AUC [2, 11]: 0.879 µg·h/mL; half-life [2, 11]: 1.24 h; AUC [2, 12]: 1.26 µg·h/mL; Cmax [2, 12]: 443 ng/mL; bioavailability [2, 12]: 28.6% |
| CCN(c1cc(-c2ccc3c(c2)N(CC(F)(F)C(F)(F)F)C(=O)C32CCOCC2)cc(C(=O)NCc2c(C)cc(C)[nH]c2=O)c1C)C1CCOCC1 [Example 39, N-((4,6-dimethyl-2-oxo-1,2-dihydropyridin-3-yl)methyl)-3-(ethyl(tetrahydro-2H-pyran-4-yl)amino)-2-methyl-5-(2-oxo-1-(2,2,3,3,3-pentafluoropropyl)-2′,3′,5′,6′-tetrahydrospiro[dihydroindole-3,4′-pyran]-6-yl)benzamide] | – | 0.897 | 1.62 | 1.09 | 478 | 24.4 | – | – | – | – | IC50 [1, 13]: 0.82 nM; IC50 [3, 14]: 0.3 nM |
| CCN(c1cc(-c2ccc3c(c2)CCC32CCOCC2)cc(C(=O)NCc2c(OC)cc(C)[nH]c2=O)c1C)C1CCOC(C)(C)C1 (stereo not shown) [Example 43, 3-((2,2-dimethyltetrahydro-2H-pyran-4-yl)(ethyl)amino)-5-(2,2′,3,3′,5′,6′-hexahydrospiro[indene-1,4-pyran]-5-yl)-N-((4-methoxy-6-methyl-2-oxo-1,2-dihydropyridin-3-yl)methyl)-2-methylbenzamide] | – | 1.03 | 1.64 | 1.62 | 490 | 31.3 | – | – | – | – | IC50 [1, 13]: 1.36 nM; IC50 [3, 14]: 1.19 nM |
| CCN(c1cc(-c2ccc3c(c2)NC(=O)C32CCN(C(=O)OC(C)(C)C)CC2)cc(C(=O)NCc2c(C)cc(C)[nH]c2=O)c1C)C1CCOCC1 [Example 79, Tert-butyl 6-(3-(((4,6-dimethyl-2-oxo-1,2-dihydropyridin-3-yl)methyl)carbamoyl)-5-(ethyl(tetrahydro-2H-pyran-4-yl)amino)-4-methylphenyl)-2-oxospiro[dihydroindole-3,4′-piperidine]-1′-carboxylate] | 2.65 | – | – | – | – | – | 1.65 | 1.09 | – | – | – |
| CCN1CCC2(CC1)C(=O)Nc1cc(-c3cc(C(=O)NCc4c(C)cc(C)[nH]c4=O)c(C)c(N(CC)C4CCOCC4)c3)ccc12 [Example 85, N-((4,6-dimethyl-2-oxo-1,2-dihydropyridin-3-yl)methyl)-3-(ethyl(tetrahydro-2H-pyran-4-yl)amino)-2-methyl-5-(1′-ethyl-2-oxospiro[dihydroindole-3,4′-piperidine]-6-yl)benzamide] | 2.85 | – | – | – | – | – | 2.42 | 0.81 | 0.38 | 0.82 | – |
| CCN(c1cc(-c2ccc3c(c2)NC(=O)C32CCOCC2)cc(C(=O)NCc2c(C)cc(C)[nH]c2=O)c1C)C1CCOCC1F (stereo not shown) [Example 103, N-((4,6-Dimethyl-2-oxo-1,2-dihydropyridin-3-yl)methyl)-3-(ethyl(3-fluoro-tetrahydro-2H-pyran-4-yl)amino)-2-methyl-5-(2-oxo-2′,3′,5′,6′-tetrahydrospiro[dihydroindole-3,4′-pyran]-6-yl)benzamide] | 0.53 | – | – | – | – | – | 0.36 | 0.92 | 0.52 | 0.63 | – |
| N-((4,6-dimethyl-2-carbonyl-1,2-dihydropyridin-3-yl)methyl)-3-(ethyl(tetrahydro-2H-pyran-4-yl)amino)-2-methyl-5-(1-neopentyl-2′,3′,5′,6′-tetrahydrospiro[dihydroindole-3,4′-pyran]-6-yl)benzamide [Example 29] | – | – | – | – | – | – | – | – | – | – | IC50 ([1]; read-out: Karpas422 Proliferation IC50 Nanomoles per Liter): 3.01 nM; IC50 ([3]; read-out: Pfeiffer Proliferation IC50 Nanomoles per Liter): 2.13 nM |
| N-((4,6-dimethyl-2-oxo-1,2-dihydropyridin-3-yl)methyl)-3-(ethyl(tetrahydro-2H-pyran-4-yl)amino)-5-(1-isopropyl-2′,3′,5′,6′-tetrahydrospiro[dihydroindole-3,4′-pyran]-6-yl)-2-methylbenzamide [Example 65] | – | – | – | – | – | – | – | – | 0.78 | – | – |

Continued, in another order:

| IC50 [1, 4] [nM] | AUC [2, 5] [µg·h/mL] | half-life [2, 6] [h] | AUC [2, 7] [µg·h/mL] | Cmax [2, 8] [ng/mL] | bioavailability [2, 9] [%] | IC50 [3, 10] [nM] | IC50 (wild-type EZH2) [nM] | IC50 (Mutant type EZH2(A677G)) [nM] | IC50 (Mutant type EZH2(Y641F)) [nM] | Molecule | also measured |
| --- | --- | --- | --- | --- | --- | --- | --- | --- | --- | --- | --- |
| 1.94 | 0.975 | 1.87 | 1.19 | 433 | 24.4 | 0.94 | – | – | – | CCN(c1cc(-c2ccc3c(c2)N(CC(F)(F)F)C(=O)C32CCOCC2)cc(C(=O)NCc2c(C)cc(C)[nH]c2=O)c1C)C1CCOCC1 [Example 13, N-((4,6-dimethyl-2-carbonyl-1,2-dihydropyridin-3-yl)methyl)-3-(ethyl(tetrahydro-2H-pyran-4-yl)amino)-2-methyl-5-(2-carbonyl-1-(2,2,2-trifluoroethyl)-2′,3′,5′,6′-tetrahydrospiro[dihydroindole-3,4′-pyran]-6-yl)benzamide] | – |
| 1.73 | 0.966 | 1.69 | 1.29 | 530 | 26.8 | 0.68 | – | – | – | CCN(c1cc(-c2ccc3c(c2)N(CCC(F)(F)F)C(=O)C32CCOCC2)cc(C(=O)NCc2c(C)cc(C)[nH]c2=O)c1C)C1CCOCC1 [Example 14, N-((4,6-dimethyl-2-carbonyl-1,2-dihydropyridin-3-yl)methyl)-3-(ethyl(tetrahydro-2H-pyran-4-yl)amino)-2-methyl-5-(2-carbonyl-1-(3,3,3-trifluoropropyl)-2′,3′,5′,6′-tetrahydrospiro[dihydroindole-3,4′-pyran]-6-yl)benzamide] | – |
| 1.73 | 0.943 | 1.64 | 1.36 | 431 | 28.8 | 1.21 | – | – | – | CCN(c1cc(-c2ccc3c(c2)N(C)C(=O)C32CCN(C(=O)OC)CC2)cc(C(=O)NCc2c(C)cc(C)[nH]c2=O)c1C)C1CCOCC1 [Example 32, Methyl 6-(3-(((4,6-dimethyl-2-carbonyl-1,2-dihydropyridin-3-yl)methyl)carbamoyl)-5-(ethyl(tetrahydro-2H-pyran-4-yl)amino)-4-methylphenyl)-1-methyl-2-carbonylspiro[dihydroindole-3,4′-piperidine]-1′-carboxylate] | – |
| 0.43 | 0.944 | 1.71 | 1.31 | 505 | 27.7 | 0.12 | 0.71 | – | – | CCN(c1cc(-c2ccc3c(c2)N(CCOC)C(=O)C32CCOCC2)cc(C(=O)NCc2c(C)cc(C)[nH]c2=O)c1C)C1CCOCC1 [Example 45, N-((4,6-dimethyl-2-oxo-1,2-dihydropyridin-3-yl)methyl)-3-(ethyl(tetrahydro-2H-pyran-4-yl)amino)-5-(1-(2-methoxyethyl)-2-oxo-2′,3′,5′,6′-tetrahydrospiro[dihydroindole-3,4′-pyran]-6-yl)-2-methylbenzamide] | – |
| 2.34 | – | – | – | – | – | 1.86 | – | – | 0.53 | CCN(c1cc(-c2ccc3c(c2)NC(=O)C32CCN(S(C)(=O)=O)CC2)cc(C(=O)NCc2c(C)cc(C)[nH]c2=O)c1C)C1CCOCC1 [Example 87, N-((4,6-dimethyl-2-oxo-1,2-dihydropyridin-3-yl)methyl)-3-(ethyl(tetrahydro-2H-pyran-4-yl)amino)-2-methyl-5-(1′-methylsulfonyl-2-oxospiro[dihydroindole-3,4′-piperidine]-6-yl)benzamide] | – |
| 2.83 | – | – | – | – | – | 2.52 | 1.42 | 0.58 | 0.73 | CCN(c1cc(-c2ccc3c(c2)NC(=O)C32CCS(=O)(=O)CC2)cc(C(=O)NCc2c(C)cc(C)[nH]c2=O)c1C)C1CCOCC1 [Example 90, N-((4,6-dimethyl-2-oxo-1,2-dihydropyridin-3-yl)methyl)-5-(1′,1′-dioxo-2-oxo-2′,3′,5′,6′-tetrahydrospiro[dihydroindole-3,4′-thiapyran]-6-yl)-3-(ethyl(tetrahydro-2H-pyran-4-yl)amino)-2-methylbenzamide] | – |
| 2.79 | – | – | – | – | – | 2.35 | 0.78 | 0.48 | 0.53 | CCN(c1cc(-c2ccc3c(c2)NC(=O)C32CCOCC2)cc(C(=O)NCc2c(C)cc(C)[nH]c2=O)c1C)C1CCSCC1 [Example 95, N-((4,6-Dimethyl-2-oxo-1,2-dihydropyridin-3-yl)methyl)-3-(ethyl(tetrahydro-2H-thiapyran-4-yl)amino)-2-methyl-5-(2-oxo-2′,3′,5′,6′-tetrahydrospiro[dihydroindole-3,4′-pyran]-6-yl)benzamide] | – |
